Test systems include SF-268 CNS; KM12 colon; SNB-75 CNS; K-562 leukemia; EKVX NSCLC; A498 renal; UACC-257 melanoma; SF-295 CNS; HT29 colon; DMS 114 small cell lung; ACHN renal.
Common to all, as to assay: NCI anticancer screen, dose series, 48 h

Molecules are shown by their SMILES.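 Cultured in 96-well plates, cells were exposed to test compound for 48 hours across five concentrations. GI50 marks 50% less growth. TGI marks complete inhibition of growth.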

This passage reports TGI and GI50 results from PubChem BioAssay (NCI).

Consider `CC(=O)OC1CCC2(C)C3CCC4(C)C(c5ccc(=O)oc5)CC5OC54C3CCC2(O)C1` (centres undefined), for which the TGI in the assay on SF-268 CNS was found to be 2.57 µM; in the assay on KM12 colon, 10.7 µM; with SNB-75 CNS, 5.77 µM; in the assay on K-562 leukemia, 24 µM; in the assay on EKVX NSCLC, 3.64 µM; in the assay on A498 renal, 15.1 µM. Also, the TGI in the assay with UACC-257 melanoma stood at 19.5 µM; in the assay with SF-295 CNS, 5.63 µM; in the assay on HT29 colon, 16.1 µM; in the assay with DMS 114 small cell lung it was 0.69 µM.
On to `CC(=O)Oc1cccc2c(/C=N/NC(N)=S)ncc(C)c12`, for which the TGI in the assay with SF-268 CNS is 17.8 µM; with KM12 colon it was 15.5 µM; in the assay on SNB-75 CNS, more than 55.6 µM; in the assay on K-562 leukemia it was more than 100 µM; with EKVX NSCLC, 39.7 µM; in the assay with A498 renal it was 29.2 µM. The TGI in the assay on UACC-257 melanoma is more than 41.2 µM; in the assay on SF-295 CNS it was 14.4 µM; with HT29 colon, 21.8 µM; in the assay on ACHN renal, 2.7 µM.
As for `CC1CC=CC(O)C1` (centres undefined), the TGI in the assay with SF-268 CNS, in the assay on KM12 colon, in the assay on SNB-75 CNS, in the assay with K-562 leukemia, in the assay with EKVX NSCLC and in the assay with A498 renal was more than 100 µM each time. The TGI with UACC-257 melanoma, in the assay on SF-295 CNS, in the assay with HT29 colon and in the assay with DMS 114 small cell lung was more than 100 µM each time.
As for `NC(CCCCP(=O)(O)O)C(=O)O` (centres undefined), the TGI in the assay with SF-268 CNS, with KM12 colon, in the assay with SNB-75 CNS, in the assay with K-562 leukemia, with EKVX NSCLC and in the assay with UACC-257 melanoma was more than 100 µM in each case. Besides, the TGI in the assay on SF-295 CNS, in the assay with HT29 colon and in the assay with ACHN renal was more than 100 µM throughout.
On to `CCC[CH2][Ge]([CH2]CCC)([CH2]CCC)[O]C(=O)CC(=O)c1ccccc1`, for which the GI50 was 4.57 µM in the assay on SF-268 CNS; 0.883 µM in the assay on KM12 colon; 0.346 µM with K-562 leukemia; 0.955 µM in the assay with EKVX NSCLC; 0.64 µM with HT29 colon; 0.0424 µM in the assay with DMS 114 small cell lung. In addition, the GI50 with ACHN renal is 2.67 µM. For the same compound, the TGI amounted to 21.6 µM with SF-268 CNS; 16 µM with KM12 colon; 14.7 µM in the assay with K-562 leukemia; 16.2 µM with EKVX NSCLC; 11.1 µM in the assay with HT29 colon; 3.32 µM in the assay on DMS 114 small cell lung. The TGI with ACHN renal turned out to be 16.8 µM.
For the compound `NNC(N)Nc1ccccc1` (centres undefined), the TGI with SF-268 CNS, with KM12 colon, in the assay on K-562 leukemia, in the assay with EKVX NSCLC, in the assay with A498 renal and with UACC-257 melanoma was more than 100 µM throughout. Moreover, the TGI in the assay with SF-295 CNS, in the assay with HT29 colon and in the assay on ACHN renal was more than 100 µM throughout.
In the case of `NCCCNc1nc2ccccc2c2c(=O)c3cc(OC(F)(F)F)ccc3sc12`, in the assay on SNB-75 CNS, the GI50 was 1.39 µM and the TGI is 2.73 µM. Besides, in the assay on ACHN renal, the GI50 was 1.6 µM and the TGI worked out at 2.96 µM.
`C=CC(Br)(CBr)CCC(Cl)C(C)C` (centres undefined): the TGI was found to be 3.07 µM with SF-268 CNS; 2.95 µM with KM12 colon; 3.04 µM in the assay on SNB-75 CNS; 5.4 µM with K-562 leukemia; 21.8 µM in the assay on EKVX NSCLC; 27 µM in the assay with A498 renal. In addition, the TGI with UACC-257 melanoma amounted to 5.97 µM; in the assay on SF-295 CNS, 3.9 µM; in the assay with HT29 colon it was 3.17 µM; with ACHN renal it was 8.49 µM.
As for `COc1ccccc1C1C(C(=O)O)=C(CO)Oc2cc3c(cc21)OCO3` (centres undefined), the TGI with SF-268 CNS, in the assay on SNB-75 CNS, in the assay on K-562 leukemia, in the assay on EKVX NSCLC, in the assay on A498 renal and in the assay on SF-295 CNS was more than 100 µM in each case. In addition, the TGI in the assay on HT29 colon, in the assay with DMS 114 small cell lung and in the assay on ACHN renal was more than 100 µM throughout.
As to `Cc1ccc(S(=O)(=O)Oc2cc(-c3ccccc3)nc3ccccc23)cc1`, the TGI in the assay with SF-268 CNS was more than 100 µM; in the assay with KM12 colon, more than 43.5 µM; in the assay with SNB-75 CNS it was 6.93 µM; with K-562 leukemia, 34.8 µM; in the assay on EKVX NSCLC, more than 100 µM; in the assay on A498 renal, 9.62 µM. Besides, the TGI in the assay with UACC-257 melanoma worked out at 52.2 µM; in the assay with SF-295 CNS it was 13.1 µM; with HT29 colon, 7.54 µM; with DMS 114 small cell lung, 1.24 µM.
`Cc1cc(=O)[nH]c(NN2C(Cl)C(=O)C2c2cccc(O)c2)n1` (centres undefined): the TGI is more than 100 µM in the assay on SF-268 CNS; more than 100 µM in the assay with KM12 colon; 6.73 µM in the assay on SNB-75 CNS; more than 100 µM with K-562 leukemia; more than 100 µM with EKVX NSCLC; more than 100 µM in the assay on UACC-257 melanoma. Also, the TGI is more than 100 µM with HT29 colon, 34.8 µM in the assay with DMS 114 small cell lung and more than 100 µM with ACHN renal.
Consider `O=C(OC(=O)n1ccc2ccccc21)n1ccc2ccccc21`, for which the TGI in the assay with SF-268 CNS, in the assay on KM12 colon, in the assay with SNB-75 CNS, with K-562 leukemia, in the assay on EKVX NSCLC and in the assay with A498 renal was more than 100 µM throughout. The TGI in the assay on UACC-257 melanoma, in the assay with SF-295 CNS, in the assay on HT29 colon and in the assay on DMS 114 small cell lung was more than 100 µM in each case.
